# Test results from ChEMBL document CHEMBL1201862, “PubChem BioAssay data set” (2004).
#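 Values below derive from 48-hour exposures of cells grown in 96-well plates, with endpoints linearly interpolated between the two concentrations bracketing the appropriate inhibition level. The concentration for 50% growth inhibition is given as GI50.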 Activity calls are given as the source filed them. Rule as the data show it: active = GI50 up to about 1.1 µM and inactive = higher.
# Experiments:
# Assay in all cases: growth of human tumour cells (NCI), 48 h
# 786-0 = test system: 786-0
# A498 = test system: A498
# A549 = test system: A549
# ACHN = test system: ACHN
# BT-549 = test system: BT-549
# CAKI-1 = test system: CAKI-1
# CCRF-CEM = test system: CCRF-CEM
# COLO 205 = test system: COLO 205
# DU-145 = test system: DU-145
# EKVX = test system: EKVX
# HCC 2998 = test system: HCC 2998
# HCT-116 = test system: HCT-116
# HCT-15 = test system: HCT-15
# HL-60 = test system: HL-60
# HOP-92 = test system: HOP-92
# HT-29 = test system: HT-29
# Hs-578T = test system: Hs-578T
# IGROV-1 = test system: IGROV-1
# K562 = test system: K562
# KM12 = test system: KM12
# LOX IMVI = test system: LOX IMVI
# MCF7 = test system: MCF7
# MDA-MB-231 = test system: MDA-MB-231
# MDA-MB-435 = test system: MDA-MB-435
# MDA-N = test system: MDA-N
# MOLT-4 = test system: MOLT-4
# Malme-3M = test system: Malme-3M
# NCI-H226 = test system: NCI-H226
# NCI-H23 = test system: NCI-H23
# NCI-H460 = test system: NCI-H460
# NCI-H522 = test system: NCI-H522
# NCI/ADR-RES = test system: NCI/ADR-RES
# OVCAR-3 = test system: OVCAR-3
# OVCAR-4 = test system: OVCAR-4
# OVCAR-5 = test system: OVCAR-5
# OVCAR-8 = test system: OVCAR-8
# PC-3 = test system: PC-3
# RPMI-8226 = test system: RPMI-8226
# SF-268 = test system: SF-268
# SF-295 = test system: SF-295
# SF-539 = test system: SF-539
# SK-MEL-28 = test system: SK-MEL-28
# SK-MEL-2 = test system: SK-MEL-2
# SK-MEL-5 = test system: SK-MEL-5
# SK-OV-3 = test system: SK-OV-3
# SN12C = test system: SN12C
# SNB-19 = test system: SNB-19
# SNB-75 = test system: SNB-75
# SW-620 = test system: SW-620
# T47D = test system: T47D
# TK-10 = test system: TK-10
# U-251 = test system: U-251
# UACC-257 = test system: UACC-257
# UACC-62 = test system: UACC-62
# UO-31 = test system: UO-31
# HOP-62 = test system: HOP-62
# M14 = test system: M14
# RXF 393 = test system: RXF 393
smiles,measurement,setting,value
O=C1CC=C2C3CC4N(CCC45c4ccccc4N1C25)C/C3=C\CO (configuration not stated),GI50,786-0,> 100 µM (inactive)
same,GI50,A498,> 100 µM (inactive)
same,GI50,A549,> 100 µM (inactive)
same,GI50,ACHN,> 100 µM (inactive)
same,GI50,BT-549,> 100 µM (inactive)
same,GI50,CAKI-1,> 100 µM (inactive)
same,GI50,CCRF-CEM,> 100 µM (inactive)
same,GI50,COLO 205,> 100 µM (inactive)
same,GI50,DU-145,> 100 µM (inactive)
same,GI50,EKVX,> 100 µM (inactive)
same,GI50,HCC 2998,> 100 µM (inactive)
same,GI50,HCT-116,> 100 µM (inactive)
same,GI50,HCT-15,> 100 µM
same,GI50,HL-60,> 100 µM (inactive)
same,GI50,HOP-92,> 100 µM (inactive)
same,GI50,HT-29,> 100 µM (inactive)
same,GI50,Hs-578T,> 100 µM (inactive)
same,GI50,IGROV-1,> 100 µM (inactive)
same,GI50,K562,> 100 µM (inactive)
same,GI50,KM12,> 100 µM (inactive)
same,GI50,LOX IMVI,> 100 µM (inactive)
same,GI50,MCF7,> 100 µM (inactive)
same,GI50,MDA-MB-231,> 100 µM (inactive)
same,GI50,MDA-MB-435,> 100 µM (inactive)
same,GI50,MDA-N,> 100 µM (inactive)
same,GI50,MOLT-4,> 100 µM (inactive)
same,GI50,Malme-3M,> 100 µM (inactive)
same,GI50,NCI-H226,> 100 µM (inactive)
same,GI50,NCI-H23,> 100 µM (inactive)
same,GI50,NCI-H460,> 100 µM (inactive)
same,GI50,NCI-H522,> 100 µM (inactive)
same,GI50,NCI/ADR-RES,> 100 µM (inactive)
same,GI50,OVCAR-3,> 100 µM (inactive)
same,GI50,OVCAR-4,> 100 µM (inactive)
same,GI50,OVCAR-5,> 100 µM (inactive)
same,GI50,OVCAR-8,> 100 µM (inactive)
same,GI50,PC-3,> 100 µM (inactive)
same,GI50,RPMI-8226,> 100 µM (inactive)
same,GI50,SF-268,> 100 µM (inactive)
same,GI50,SF-295,> 100 µM (inactive)
same,GI50,SF-539,> 100 µM (inactive)
same,GI50,SK-MEL-28,> 100 µM (inactive)
same,GI50,SK-MEL-2,> 100 µM (inactive)
same,GI50,SK-MEL-5,> 100 µM (inactive)
same,GI50,SK-OV-3,> 100 µM (inactive)
same,GI50,SN12C,> 100 µM (inactive)
same,GI50,SNB-19,> 100 µM (inactive)
same,GI50,SNB-75,> 100 µM (inactive)
same,GI50,SW-620,> 100 µM (inactive)
same,GI50,T47D,> 100 µM (inactive)
same,GI50,TK-10,> 100 µM (inactive)
same,GI50,U-251,> 100 µM (inactive)
same,GI50,UACC-257,> 100 µM (inactive)
same,GI50,UACC-62,> 100 µM (inactive)
same,GI50,UO-31,> 100 µM (inactive)
C[C@H](CC[C@@H](O)C(C)(C)O)[C@H]1CC[C@@]2(C)[C@@H]3CC=C4[C@@H](CC[C@H](OC5OC(CO)C(O)C(O)C5O)C4(C)C)[C@]3(C)C(=O)C[C@]12C (some centres not stated),GI50,786-0,26.6 µM (inactive)
same,GI50,A498,> 100 µM (inactive)
same,GI50,A549,37.2 µM (inactive)
same,GI50,ACHN,32.7 µM (inactive)
same,GI50,BT-549,56.5 µM (inactive)
same,GI50,CAKI-1,65 µM (inactive)
same,GI50,CCRF-CEM,14.6 µM (inactive)
same,GI50,COLO 205,48.9 µM (inactive)
same,GI50,DU-145,39 µM (inactive)
same,GI50,EKVX,80.4 µM (inactive)
same,GI50,HCC 2998,89.7 µM (inactive)
same,GI50,HCT-116,45.3 µM (inactive)
same,GI50,HCT-15,67.9 µM
same,GI50,HL-60,20.7 µM (inactive)
same,GI50,HOP-62,36.8 µM (inactive)
same,GI50,HOP-92,> 100 µM (inactive)
same,GI50,HT-29,26.1 µM (inactive)
same,GI50,Hs-578T,37.3 µM (inactive)
same,GI50,IGROV-1,19.8 µM (inactive)
same,GI50,K562,18.9 µM (inactive)
same,GI50,KM12,> 100 µM (inactive)
same,GI50,LOX IMVI,39 µM (inactive)
same,GI50,M14,31.1 µM (inactive)
same,GI50,MCF7,51.5 µM (inactive)
same,GI50,MDA-MB-231,> 100 µM (inactive)
same,GI50,MDA-MB-435,42.6 µM (inactive)
same,GI50,MDA-N,32.7 µM (inactive)
same,GI50,MOLT-4,21.1 µM (inactive)
same,GI50,Malme-3M,49.4 µM (inactive)
same,GI50,NCI-H226,> 100 µM (inactive)
same,GI50,NCI-H23,> 100 µM (inactive)
same,GI50,NCI-H460,52.4 µM (inactive)
same,GI50,NCI-H522,37.6 µM (inactive)
same,GI50,NCI/ADR-RES,> 100 µM (inactive)
same,GI50,OVCAR-3,65 µM (inactive)
same,GI50,OVCAR-4,45.3 µM (inactive)
same,GI50,OVCAR-5,> 100 µM (inactive)
same,GI50,OVCAR-8,> 100 µM (inactive)
same,GI50,PC-3,75 µM (inactive)
same,GI50,RXF 393,35.2 µM (inactive)
same,GI50,SF-268,57.7 µM (inactive)
same,GI50,SF-295,90.4 µM (inactive)
same,GI50,SF-539,> 100 µM (inactive)
same,GI50,SK-MEL-28,27.7 µM (inactive)
same,GI50,SK-MEL-2,26.3 µM (inactive)
same,GI50,SK-MEL-5,39.5 µM (inactive)
same,GI50,SK-OV-3,31 µM (inactive)
same,GI50,SN12C,69 µM (inactive)
same,GI50,SNB-19,62.5 µM (inactive)
same,GI50,SNB-75,34.3 µM (inactive)
same,GI50,SW-620,4.03 µM (inactive)
same,GI50,T47D,97.9 µM (inactive)
same,GI50,TK-10,60.8 µM (inactive)
same,GI50,U-251,33.6 µM (inactive)
same,GI50,UACC-257,33.7 µM (inactive)
same,GI50,UACC-62,58.1 µM (inactive)
same,GI50,UO-31,28.9 µM (inactive)
